From US8927254B2 (priority 2010, dated 2015)
In brackets after ≈: the same amount, converted by molar mass. Where two headings read alike, the source gives them in different places.

Experiments:
[1] = test system: P. furiosus trp deletion strains; type: cell-based, Pyrococcus furiosus
P. furiosus = experiment: microbe, parasite or virus in culture; type: cell-based; settings: Pyrococcus furiosus

SMILES	sensitivity to 5-FAA ([1]; trpAB deletion strain, tight tryptophan auxotroph)	sensitivity to 5-FAA ([1]; trpE or trpD deletion strains, leaky tryptophan auxotrophs)	sensitivity to 5-FAA ([1]; trpF (PF1707) pop-out deletion strain, leaky auxotroph)	MIC (P. furiosus)
Nc1ccc(F)cc1C(=O)O [5-FAA, 5-fluoroanthranilic acid]	not sensitive	not sensitive	not sensitive	
CCC(C)(C)C(=O)O[C@H]1C[C@@H](C)C=C2C=C[C@H](C)[C@H](CC[C@@H]3C[C@@H](O)CC(=O)O3)[C@H]21 [simvastatin]				0.01 to 0.024 mM (≈ 4.19 to 10 µg/mL)
O=C(O)c1[nH]c(=O)[nH]c(=O)c1F [5-FOA, 5-fluoroorotic acid]				8 mM (≈ 1390 µg/mL)
